Measurements from patent US10376520B2, “Methods for the treatment of cardiovascular disorders” (Galapagos NV, priority 2015, dated 2019).

System: RA patients
Assay: LDL determination, Study 1 (RA patients, add-on to MTX)
Type: in vivo, human
Details: for [LDL] Mean CFB / [LDL] Median CFB: Study 1 12 weeks results
Experimental: Double-blind, placebo-controlled add on study in subjects with moderately to severely active RA who have an inadequate response to methotrexate (MTX) (oral or parenteral).
595 subjects randomized to one of 6 dose regimens of Compound 1 (dosed as a [Compound 1:HCl:3H2O]) (3 dose levels administered either once or twice daily) or placebo on top of each subject's stable dose of MTX.
Compound 1 (dosed as a [Compound 1:HCl:3H2O]) is dosed for twelve weeks once daily (q.d.) (50 mg, 100 mg or 200 mg) or twice daily (b.i.d.) (25 mg, 50 mg or 100 mg); or placebo.
At Week 12, the subjects on placebo who have not achieved 20% improvement in swollen joint count (SJC66) and tender joint count (TJC68) are re-randomized automatically to receive Compound 1 (dosed as a [Compound 1:HCl:3H2O]) either at 100 mg q.d. or 50 mg b.i.d. doses in a blinded fashion; subjects on 50 mg q.d. who have not achieved 20% improvement in SJC66 and TJC68 will be assigned to 100 mg q.d. and subjects on 25 mg b.i.d. that have not achieved a 20% improvement in SJC66 and TJC68 will be assigned to 50 mg b.i.d. Subjects who switch treatment at week 12 are handled as if they discontinued at week 12 for the purpose of statistical analysis, whereas subjects in the other groups will maintain their randomized treatment until Week 24.
The determination of [LDL]-cholesterol is made using an automated method taking advantage of the selective micellary solubilization of [LDL]-cholesterol by a nonionic detergent and the interaction of a sugar compound and lipoproteins (VLDL and chylomicrons).
When a detergent is included in the enzymatic method for cholesterol determination (cholesterol esterase, cholesterol oxidase coupling reaction), the relative reactivities of cholesterol in the lipoprotein fractions increase in this order: [HDL]<chylomicrons <VLDL <[LDL]. In the presence of Mg^2+, a sugar compound markedly reduces the enzymatic reaction of the cholesterol measurement in VLDL and chylomicrons. The combination of a sugar compound with detergent enables the selective determination of [LDL]-cholesterol in serum. (Friedewald et al., 1972; Rifai et al., 1992)
Homogeneous enzymatic colorimetric assay.
In the presence of peroxidase, the hydrogen peroxide generated reacts with 4-aminoantipyrine and Sodium N-(2-hydroxy-3-sulfopropyl)-3,5-dimethoxyaniline (HSDA) to form a purple-blue dye.
The color intensity of this dye is directly proportional to the cholesterol concentration and is measured photometrically.
Human serum and plasma samples [LDL] determination was done on a Roche/Hitachi Cobas c 701/702 system which automatically calculate the analyte concentration of each sample. Samples containing precipitates are centrifuged before performing the assay.

O=C(Nc1nc2cccc(-c3ccc(CN4CCS(=O)(=O)CC4)cc3)n2n1)C1CC1 [Compound 1, cyclopropanecarboxylic acid {5-[4-(1,1-dioxo-thiomorpholin-4-ylmethyl)-phenyl]-[1,2,4]triazolo[1,5-a]pyridin-2yl}-amide]
[LDL] Mean percentage CFB - 24 weeks results (25 mg b.i.d continued over 24 weeks, week 1): 2.79%
[LDL] Mean percentage CFB - 24 weeks results (25 mg b.i.d continued over 24 weeks, week 2): 3.88%
[LDL] Mean percentage CFB - 24 weeks results (25 mg b.i.d continued over 24 weeks, week 4): 4.15%
[LDL] Mean percentage CFB - 24 weeks results (25 mg b.i.d continued over 24 weeks, week 8): 3.83%
[LDL] Mean percentage CFB - 24 weeks results (25 mg b.i.d continued over 24 weeks, week 12): 7.21%
[LDL] Mean percentage CFB - 24 weeks results (25 mg b.i.d continued over 24 weeks, week 16): 6.54%
[LDL] Mean percentage CFB - 24 weeks results (25 mg b.i.d continued over 24 weeks, week 20): 7.42%
[LDL] Mean percentage CFB - 24 weeks results (25 mg b.i.d continued over 24 weeks, week 24): 8.14%
[LDL] Mean percentage CFB - 24 weeks results (50 mg b.i.d. continued over 24 weeks, week 1): 4.19%
[LDL] Mean percentage CFB - 24 weeks results (50 mg b.i.d. continued over 24 weeks, week 2): 3.43%
[LDL] Mean percentage CFB - 24 weeks results (50 mg b.i.d. continued over 24 weeks, week 4): 7.11%
[LDL] Mean percentage CFB - 24 weeks results (50 mg b.i.d. continued over 24 weeks, week 8): 4.75%
[LDL] Mean percentage CFB - 24 weeks results (50 mg b.i.d. continued over 24 weeks, week 12): 2.33%
[LDL] Mean percentage CFB - 24 weeks results (50 mg b.i.d. continued over 24 weeks, week 16): 5.78%
[LDL] Mean percentage CFB - 24 weeks results (50 mg b.i.d. continued over 24 weeks, week 20): 7.08%
[LDL] Mean percentage CFB - 24 weeks results (50 mg b.i.d. continued over 24 weeks, week 24): 8.29%
[LDL] Mean percentage CFB - 12 weeks results (50 mg q.d. (N = 82), week 1): 0%
[LDL] Mean percentage CFB - 12 weeks results (50 mg q.d. (N = 82), week 2): 1%
[LDL] Mean percentage CFB - 12 weeks results (50 mg q.d. (N = 82), week 4): 0%
[LDL] Mean percentage CFB - 12 weeks results (50 mg q.d. (N = 82), week 8): 3%
[LDL] Mean percentage CFB - 12 weeks results (50 mg q.d. (N = 82), week 12): 6%
[LDL] Mean percentage CFB - 24 weeks results (50 mg q.d. continued over 24 weeks, week 1): 0.26%
[LDL] Mean percentage CFB - 24 weeks results (50 mg q.d. continued over 24 weeks, week 2): −0.24%
[LDL] Mean percentage CFB - 24 weeks results (50 mg q.d. continued over 24 weeks, week 4): 0.35%
[LDL] Mean percentage CFB - 24 weeks results (50 mg q.d. continued over 24 weeks, week 8): 3.58%
[LDL] Mean percentage CFB - 24 weeks results (50 mg q.d. continued over 24 weeks, week 12): 6.67%
[LDL] Mean percentage CFB - 24 weeks results (50 mg q.d. continued over 24 weeks, week 16): 6.70%
[LDL] Mean percentage CFB - 24 weeks results (50 mg q.d. continued over 24 weeks, week 20): 6.29%
[LDL] Mean percentage CFB - 24 weeks results (50 mg q.d. continued over 24 weeks, week 24): 6.05%
[LDL] Mean percentage CFB - 24 weeks results (100 mg b.i.d. continued over 24 weeks, week 1): 8.14%
[LDL] Mean percentage CFB - 24 weeks results (100 mg b.i.d. continued over 24 weeks, week 4): 7.69%
[LDL] Mean percentage CFB - 24 weeks results (100 mg b.i.d. continued over 24 weeks, week 8): 13.14%
[LDL] Mean percentage CFB - 24 weeks results (100 mg b.i.d. continued over 24 weeks, week 12): 11.86%
[LDL] Mean percentage CFB - 24 weeks results (100 mg b.i.d. continued over 24 weeks, week 16): 9.44%
[LDL] Mean percentage CFB - 24 weeks results (100 mg b.i.d. continued over 24 weeks, week 20): 7.71%
[LDL] Mean percentage CFB - 24 weeks results (100 mg b.i.d. continued over 24 weeks, week 24): 12.88%
[LDL] Mean percentage CFB - 12 weeks results (100 mg q.d. (N = 85), week 1): 5%
[LDL] Mean percentage CFB - 12 weeks results (100 mg q.d. (N = 85), week 2): 2%
[LDL] Mean percentage CFB - 12 weeks results (100 mg q.d. (N = 85), week 4): 5%
[LDL] Mean percentage CFB - 12 weeks results (100 mg q.d. (N = 85), week 8): 4%
[LDL] Mean percentage CFB - 12 weeks results (100 mg q.d. (N = 85), week 12): 6%
[LDL] Mean percentage CFB - 24 weeks results (100 mg q.d. continued over 24 weeks, week 1): 5.08%
[LDL] Mean percentage CFB - 24 weeks results (100 mg q.d. continued over 24 weeks, week 2): 1.97%
[LDL] Mean percentage CFB - 24 weeks results (100 mg q.d. continued over 24 weeks, week 4): 5.31%
[LDL] Mean percentage CFB - 24 weeks results (100 mg q.d. continued over 24 weeks, week 8): 3.51%
[LDL] Mean percentage CFB - 24 weeks results (100 mg q.d. continued over 24 weeks, week 12): 5.69%
[LDL] Mean percentage CFB - 24 weeks results (100 mg q.d. continued over 24 weeks, week 16): 0.89%
[LDL] Mean percentage CFB - 24 weeks results (100 mg q.d. continued over 24 weeks, week 20): 1.19%
[LDL] Mean percentage CFB - 24 weeks results (100 mg q.d. continued over 24 weeks, week 24): 2.66%
[LDL] Mean percentage CFB - 12 weeks results (200 mg q.d. (N = 86), week 1): 6%
[LDL] Mean percentage CFB - 12 weeks results (200 mg q.d. (N = 86), week 2): 6%
[LDL] Mean percentage CFB - 12 weeks results (200 mg q.d. (N = 86), week 4): 6%
[LDL] Mean percentage CFB - 12 weeks results (200 mg q.d. (N = 86), week 8): 8%
[LDL] Mean percentage CFB - 12 weeks results (200 mg q.d. (N = 86), week 12): 8%
[LDL] Mean percentage CFB - 24 weeks results (200 mg q.d. continued over 24 weeks, week 1): 6.34%
[LDL] Mean percentage CFB - 24 weeks results (200 mg q.d. continued over 24 weeks, week 2): 5.81%
[LDL] Mean percentage CFB - 24 weeks results (200 mg q.d. continued over 24 weeks, week 4): 5.97%
[LDL] Mean percentage CFB - 24 weeks results (200 mg q.d. continued over 24 weeks, week 8): 7.93%
[LDL] Mean percentage CFB - 24 weeks results (200 mg q.d. continued over 24 weeks, week 12): 7.96%
[LDL] Mean percentage CFB - 24 weeks results (200 mg q.d. continued over 24 weeks, week 16): 7.99%
[LDL] Mean percentage CFB - 24 weeks results (200 mg q.d. continued over 24 weeks, week 20): 8.85%
[LDL] Mean percentage CFB - 24 weeks results (200 mg q.d. continued over 24 weeks, week 24): 7.78%
[LDL] Mean percentage CFB - 12 weeks results (2 x 25 mg b.i.d. (N = 86), week 1): 3%
[LDL] Mean percentage CFB - 12 weeks results (2 x 25 mg b.i.d. (N = 86), week 2): 4%
[LDL] Mean percentage CFB - 12 weeks results (2 x 25 mg b.i.d. (N = 86), week 4): 3%
[LDL] Mean percentage CFB - 12 weeks results (2 x 25 mg b.i.d. (N = 86), week 8): 2%
[LDL] Mean percentage CFB - 12 weeks results (2 x 25 mg b.i.d. (N = 86), week 12): 6%
[LDL] Mean percentage CFB - 12 weeks results (2 x 50 mg b.i.d. (N = 85), week 1): 4%
[LDL] Mean percentage CFB - 12 weeks results (2 x 50 mg b.i.d. (N = 85), week 2): 3%
[LDL] Mean percentage CFB - 12 weeks results (2 x 50 mg b.i.d. (N = 85), week 4): 7%
[LDL] Mean percentage CFB - 12 weeks results (2 x 50 mg b.i.d. (N = 85), week 8): 5%
[LDL] Mean percentage CFB - 12 weeks results (2 x 50 mg b.i.d. (N = 85), week 12): 2%
[LDL] Mean percentage CFB - 12 weeks results (2 x 100 mg b.i.d. (N = 84), week 1): 8%
[LDL] Mean percentage CFB - 12 weeks results (2 x 100 mg b.i.d. (N = 84), week 2): 6%
[LDL] Mean percentage CFB - 12 weeks results (2 x 100 mg b.i.d. (N = 84), week 4): 8%
[LDL] Mean percentage CFB - 12 weeks results (2 x 100 mg b.i.d. (N = 84), week 8): 13%
[LDL] Mean percentage CFB - 12 weeks results (2 x 100 mg b.i.d. (N = 84), week 12): 12%
[LDL] Mean CFB (50 mg q.d., week 1): -0.01 mmol/L
[LDL] Median CFB (50 mg q.d., week 1): -0.01 mmol/L
[LDL] Mean CFB (50 mg q.d., week 2): 0.02 mmol/L
[LDL] Median CFB (50 mg q.d., week 2): 0.02 mmol/L
[LDL] Mean CFB (50 mg q.d., week 4): 0.01 mmol/L
[LDL] Median CFB (50 mg q.d., week 4): -0.01 mmol/L
[LDL] Mean CFB (50 mg q.d., week 8): 0.06 mmol/L
[LDL] Median CFB (50 mg q.d., week 8): 0.07 mmol/L
[LDL] Mean CFB (50 mg q.d., week 12): 0.14 mmol/L
[LDL] Median CFB (50 mg q.d., week 12): 0.13 mmol/L
[LDL] Mean CFB (100 mg q.d., week 1): 0.11 mmol/L
[LDL] Median CFB (100 mg q.d., week 1): 0.1 mmol/L
[LDL] Mean CFB (100 mg q.d., week 2): 0.01 mmol/L
[LDL] Median CFB (100 mg q.d., week 2): 0.02 mmol/L
[LDL] Mean CFB (100 mg q.d., week 4): 0.13 mmol/L
[LDL] Median CFB (100 mg q.d., week 4): 0.13 mmol/L
[LDL] Mean CFB (100 mg q.d., week 8): 0.03 mmol/L
[LDL] Median CFB (100 mg q.d., week 8): 0.05 mmol/L
[LDL] Mean CFB (100 mg q.d., week 12): 0.13 mmol/L
[LDL] Median CFB (100 mg q.d., week 12): 0.13 mmol/L
[LDL] Mean CFB (200 mg q.d., week 1): 0.16 mmol/L
[LDL] Median CFB (200 mg q.d., week 1): 0.16 mmol/L
